Experimental data reported in article PMC5508973 (ChemMedChem, 2017).

Experiments:
U937 = assay: cells; format: cell-based; details: Homo sapiens, U-937, 24 h
MM.1S = assay: cells; format: cell-based; details: Homo sapiens, MM1.S, 24 h
MM.1R = assay: cells; format: cell-based; details: Homo sapiens, 24 h
K562 = assay: cells; format: cell-based; details: Homo sapiens, K562, 24 h
K562/ADR = assay: cells; format: cell-based; details: Homo sapiens, 24 h
HeLa = assay: cells; format: cell-based; details: Homo sapiens, 24 h
LO2 = assay: cells; format: cell-based; details: Homo sapiens, L02, 24 h
NIH3T3 = assay: cells; format: cell-based; details: Mus musculus, NIH3T3, 24 h
[1] = tested on: CBL-resistant K562 cell line; format: cell-based, Human; details: K562, 24-h incubation, Annexin-V
[2] = tested on: primary chronic lymphocytic leukemia (CLL) cells; format: cell-based, Human; details: treatment with 50 μM
[3] = tested on: 17.7 kb segment of nDNA at the b-globin gene and 8.9 kb fragment of mtDNA; assay: DNA damage by PCR amplification of nDNA and mtDNA; format: cell-based; details: PCR amplification after cell treatment
[4] = tested on: peripheral blood mononuclear cells (PBMCs) from normal healthy donors; details: treatment with 50 μM

O=C(O)CCCc1ccc(N(CCCl)CCCl)cc1 [CBL, chlorambucil]
IC50 (U937): 45.7 ± 3.71 µM
IC50 (MM.1S): 47.4 ± 5.08 µM
IC50 (MM.1R): 236 ± 16.9 µM
IC50 (K562): 417 ± 27.9 µM
IC50 (K562/ADR): > 1000 µM
IC50 (HeLa): 321 ± 33.2 µM
IC50 (LO2): > 600 µM
IC50 (NIH3T3): > 600 µM
apoptotic cell population [1]: 11.24%
CLL cells killed [2]: 32.3%
DNA damage in nuclear and mitochondrial genome [3]: primarily damaged nDNA with very few mitochondrial lesions
PBMCs killed [4]: 11%
